For orientation: pEC50 means the EC50 on a negative log10 scale, so that one unit is a factor of ten.

Compound in experiment [1]: Nc1ncnc2c1ncn2[C@@H]1O[C@H](COP(=O)(O)OP(=O)(O)OP(=O)(O)O)[C@@H](O)[C@H]1O [adenosine triphosphate]
Briefly: pEC50 of ATP-induced change in protein thermal stability (2D-TPP). The method, boiled down: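 In three independent experiments, Jurkat crude lysate received five concentrations including vehicle for 10 min at room temperature before a 3 min heating step at 12 temperatures (42–63.9 °C). NP40 and benzonase were then added for 60 min at 4 °C, and soluble protein after ultracentrifugation was read out by TMT LC-MS/MS as median-normalised fold changes against vehicle at each temperature. Dose-response fits per replicate over adjacent temperature pairs yielded pEC50, with hits called by permutation-based false discovery rate control.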

Compound in experiment [2]: Nc1nc2c(ncn2[C@@H]2O[C@H](COP(=O)(O)OP(=O)(O)OP(=O)(O)O)[C@@H](O)[C@H]2O)c(=O)[nH]1 [guanosine triphosphate]
Briefly: pEC50 of GTP-induced change in protein thermal stability (2D-TPP). How it is done: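 2D thermal proteome profiling in Jurkat crude lysate. Lysate was treated 10 min at room temperature with Na-GTP (0, 0.001, 0.01, 0.1, 0.5 mM), heated to 12 temperatures (42-63.9 °C) for 3 min, and soluble protein was quantified by TMT10 LC-MS/MS. pEC50 is the median over replicates of dose-response fits (FDR-controlled hits).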

Bounds are passed on as bounds.
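For pEC50 of ATP-induced change in protein thermal stability (2D-TPP) in this document: lysate dosed with Na-ATP at 0 0.005 0.05 0.5 and 2 mM.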

Chain of UniProt P14868 (P14868 whole entry): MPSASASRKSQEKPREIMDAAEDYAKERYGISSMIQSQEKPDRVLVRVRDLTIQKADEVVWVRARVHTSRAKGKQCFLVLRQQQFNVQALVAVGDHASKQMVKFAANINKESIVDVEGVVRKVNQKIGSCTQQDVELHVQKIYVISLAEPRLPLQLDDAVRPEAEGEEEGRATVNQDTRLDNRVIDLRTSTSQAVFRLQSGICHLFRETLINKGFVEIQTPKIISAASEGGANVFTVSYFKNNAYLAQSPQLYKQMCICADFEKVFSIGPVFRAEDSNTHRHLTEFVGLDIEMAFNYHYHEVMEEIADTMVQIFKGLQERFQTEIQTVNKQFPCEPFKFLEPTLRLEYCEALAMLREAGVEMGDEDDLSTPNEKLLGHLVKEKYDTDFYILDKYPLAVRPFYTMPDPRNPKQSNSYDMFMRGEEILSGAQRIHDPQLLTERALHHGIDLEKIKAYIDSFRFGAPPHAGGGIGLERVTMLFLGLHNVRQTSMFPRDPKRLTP
Chain of UniProt P23919 (P23919 whole entry): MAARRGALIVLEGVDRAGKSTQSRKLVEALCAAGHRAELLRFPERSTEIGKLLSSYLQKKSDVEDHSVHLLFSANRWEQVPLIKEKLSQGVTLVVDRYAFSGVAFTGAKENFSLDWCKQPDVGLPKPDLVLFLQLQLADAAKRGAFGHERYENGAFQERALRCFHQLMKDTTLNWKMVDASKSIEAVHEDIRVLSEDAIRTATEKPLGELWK
Chain of UniProt Q8NE71 (Q8NE71 whole entry): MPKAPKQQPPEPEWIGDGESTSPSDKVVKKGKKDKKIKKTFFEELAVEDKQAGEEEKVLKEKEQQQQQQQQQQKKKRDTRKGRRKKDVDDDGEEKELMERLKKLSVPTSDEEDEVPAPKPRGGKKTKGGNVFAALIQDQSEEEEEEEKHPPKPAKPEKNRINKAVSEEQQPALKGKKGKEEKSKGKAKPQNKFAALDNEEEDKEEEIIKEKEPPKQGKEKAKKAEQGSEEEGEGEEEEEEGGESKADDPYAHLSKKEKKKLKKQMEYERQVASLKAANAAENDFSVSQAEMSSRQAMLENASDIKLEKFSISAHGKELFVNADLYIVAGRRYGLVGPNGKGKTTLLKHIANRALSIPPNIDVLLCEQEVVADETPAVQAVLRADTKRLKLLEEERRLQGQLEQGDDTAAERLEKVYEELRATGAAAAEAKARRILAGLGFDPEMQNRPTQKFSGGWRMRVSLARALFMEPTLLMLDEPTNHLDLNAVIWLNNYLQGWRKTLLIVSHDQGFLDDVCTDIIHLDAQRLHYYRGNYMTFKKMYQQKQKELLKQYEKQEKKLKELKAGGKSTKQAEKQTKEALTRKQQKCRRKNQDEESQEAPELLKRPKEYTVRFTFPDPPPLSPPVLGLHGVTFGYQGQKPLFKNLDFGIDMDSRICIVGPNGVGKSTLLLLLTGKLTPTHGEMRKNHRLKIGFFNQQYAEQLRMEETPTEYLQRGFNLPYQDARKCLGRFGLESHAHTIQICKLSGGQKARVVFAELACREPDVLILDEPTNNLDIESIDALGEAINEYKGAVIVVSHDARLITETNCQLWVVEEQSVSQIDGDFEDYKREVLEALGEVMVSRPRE
Chain of UniProt Q9HD20 (Q9HD20 whole entry): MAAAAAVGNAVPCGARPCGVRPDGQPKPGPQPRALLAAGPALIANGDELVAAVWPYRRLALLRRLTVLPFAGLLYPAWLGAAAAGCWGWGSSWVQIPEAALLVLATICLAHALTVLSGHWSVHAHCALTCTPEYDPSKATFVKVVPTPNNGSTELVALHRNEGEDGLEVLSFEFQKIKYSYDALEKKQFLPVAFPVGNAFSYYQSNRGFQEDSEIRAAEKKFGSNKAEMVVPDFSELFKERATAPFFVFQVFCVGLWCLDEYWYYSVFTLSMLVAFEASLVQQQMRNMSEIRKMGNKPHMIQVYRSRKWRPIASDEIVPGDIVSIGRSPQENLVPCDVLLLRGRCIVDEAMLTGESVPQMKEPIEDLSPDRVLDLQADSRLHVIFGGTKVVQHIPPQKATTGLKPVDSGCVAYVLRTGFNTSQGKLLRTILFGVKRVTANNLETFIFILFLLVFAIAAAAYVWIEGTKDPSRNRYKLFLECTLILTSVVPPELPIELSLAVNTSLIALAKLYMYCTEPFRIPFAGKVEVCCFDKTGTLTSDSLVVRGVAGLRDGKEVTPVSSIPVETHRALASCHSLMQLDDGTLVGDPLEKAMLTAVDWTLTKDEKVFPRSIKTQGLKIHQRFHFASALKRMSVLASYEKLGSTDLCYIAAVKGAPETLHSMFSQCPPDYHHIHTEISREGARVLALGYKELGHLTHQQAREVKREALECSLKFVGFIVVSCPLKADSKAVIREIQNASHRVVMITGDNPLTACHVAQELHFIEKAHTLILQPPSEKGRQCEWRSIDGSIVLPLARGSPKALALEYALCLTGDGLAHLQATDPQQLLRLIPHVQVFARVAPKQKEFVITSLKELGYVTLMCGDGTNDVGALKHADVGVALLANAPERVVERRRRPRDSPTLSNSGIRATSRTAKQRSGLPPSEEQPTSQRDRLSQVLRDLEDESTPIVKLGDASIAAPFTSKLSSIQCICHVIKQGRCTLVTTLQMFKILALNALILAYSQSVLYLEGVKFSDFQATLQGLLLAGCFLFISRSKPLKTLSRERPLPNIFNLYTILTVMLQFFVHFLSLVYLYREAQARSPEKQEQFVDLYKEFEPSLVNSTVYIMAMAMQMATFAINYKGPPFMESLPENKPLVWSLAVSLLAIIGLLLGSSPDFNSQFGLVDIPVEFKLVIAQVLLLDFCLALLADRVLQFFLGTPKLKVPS
Chain of UniProt Q9UIJ7 (Q9UIJ7 whole entry): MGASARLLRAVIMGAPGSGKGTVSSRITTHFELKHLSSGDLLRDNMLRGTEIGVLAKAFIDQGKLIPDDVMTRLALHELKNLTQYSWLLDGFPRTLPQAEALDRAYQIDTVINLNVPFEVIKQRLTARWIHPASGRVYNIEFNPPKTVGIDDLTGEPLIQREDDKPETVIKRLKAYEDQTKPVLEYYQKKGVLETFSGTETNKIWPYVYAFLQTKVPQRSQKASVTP
Chain of UniProt P36915 (P36915 whole entry): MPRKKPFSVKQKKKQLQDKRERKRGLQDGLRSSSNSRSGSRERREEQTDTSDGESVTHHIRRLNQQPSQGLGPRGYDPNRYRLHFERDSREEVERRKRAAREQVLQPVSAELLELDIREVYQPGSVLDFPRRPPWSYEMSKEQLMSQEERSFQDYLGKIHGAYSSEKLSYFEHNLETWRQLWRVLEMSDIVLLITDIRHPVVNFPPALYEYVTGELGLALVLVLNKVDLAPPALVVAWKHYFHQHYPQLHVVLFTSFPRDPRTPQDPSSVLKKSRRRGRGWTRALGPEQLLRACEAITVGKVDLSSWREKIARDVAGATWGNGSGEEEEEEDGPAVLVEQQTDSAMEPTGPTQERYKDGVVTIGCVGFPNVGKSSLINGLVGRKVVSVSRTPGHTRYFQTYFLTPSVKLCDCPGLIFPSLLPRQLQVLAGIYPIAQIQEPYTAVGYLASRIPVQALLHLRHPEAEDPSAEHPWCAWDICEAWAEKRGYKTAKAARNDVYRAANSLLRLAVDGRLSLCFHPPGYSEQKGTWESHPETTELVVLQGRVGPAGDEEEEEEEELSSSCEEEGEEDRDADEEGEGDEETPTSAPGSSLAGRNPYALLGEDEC
Chain of UniProt P04899 (P04899 whole entry): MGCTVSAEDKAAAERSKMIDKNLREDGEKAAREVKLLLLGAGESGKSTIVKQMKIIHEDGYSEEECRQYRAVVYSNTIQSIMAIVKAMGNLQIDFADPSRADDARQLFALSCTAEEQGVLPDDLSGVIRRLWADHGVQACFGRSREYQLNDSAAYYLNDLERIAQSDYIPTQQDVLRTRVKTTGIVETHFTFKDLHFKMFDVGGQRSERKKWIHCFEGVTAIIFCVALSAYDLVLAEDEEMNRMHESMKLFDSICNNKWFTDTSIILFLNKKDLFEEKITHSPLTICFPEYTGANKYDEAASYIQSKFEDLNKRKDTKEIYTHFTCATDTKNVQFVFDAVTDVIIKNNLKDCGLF
Chain of UniProt Q6P9H5 (Q6P9H5 whole entry): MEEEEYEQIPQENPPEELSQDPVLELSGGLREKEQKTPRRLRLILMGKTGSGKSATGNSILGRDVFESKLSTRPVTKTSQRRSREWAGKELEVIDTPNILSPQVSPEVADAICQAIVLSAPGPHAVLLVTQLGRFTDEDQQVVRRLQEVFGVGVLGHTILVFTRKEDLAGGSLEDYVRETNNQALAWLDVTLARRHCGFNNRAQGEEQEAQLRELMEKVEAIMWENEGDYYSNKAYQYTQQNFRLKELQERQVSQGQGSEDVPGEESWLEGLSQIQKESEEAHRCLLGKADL
Chain of UniProt Q9UI10 (Q9UI10 whole entry): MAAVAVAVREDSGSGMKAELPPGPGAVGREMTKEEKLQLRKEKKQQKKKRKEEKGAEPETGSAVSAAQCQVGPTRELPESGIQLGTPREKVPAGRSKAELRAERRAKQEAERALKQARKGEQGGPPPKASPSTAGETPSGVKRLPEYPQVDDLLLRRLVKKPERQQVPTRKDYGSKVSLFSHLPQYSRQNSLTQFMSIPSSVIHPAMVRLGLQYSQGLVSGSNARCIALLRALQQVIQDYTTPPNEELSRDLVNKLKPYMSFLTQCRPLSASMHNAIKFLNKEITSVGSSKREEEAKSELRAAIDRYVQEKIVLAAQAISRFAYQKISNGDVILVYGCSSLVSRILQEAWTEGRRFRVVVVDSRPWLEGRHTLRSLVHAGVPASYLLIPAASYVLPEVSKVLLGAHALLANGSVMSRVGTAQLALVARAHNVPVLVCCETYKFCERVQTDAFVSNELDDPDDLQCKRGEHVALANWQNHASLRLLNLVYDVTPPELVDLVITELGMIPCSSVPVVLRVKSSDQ
Chain of UniProt P36404 (P36404 whole entry): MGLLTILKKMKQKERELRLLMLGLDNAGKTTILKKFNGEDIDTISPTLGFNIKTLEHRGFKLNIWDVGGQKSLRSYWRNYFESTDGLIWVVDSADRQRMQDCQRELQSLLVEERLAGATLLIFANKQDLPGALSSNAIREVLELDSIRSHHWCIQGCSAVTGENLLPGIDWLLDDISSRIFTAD

As to “ABCB7 (effect direction: stabilized) (UniProt O75027)”, the pEC50 in experiment [1] was 3.49; in experiment [2], 3.82.

As to “ABCC4 (effect direction: stabilized) (UniProt O15439)”, the negative logarithm of the EC50 (pEC50) in experiment [1] was 3.41; in experiment [2] it was 3.94.

For the target “ABCF1 (effect direction: stabilized) (UniProt Q8NE71)”, the pEC50 in experiment [1] was found to be 4.2; in experiment [2] it was 3.96.

Turning to “ACSL3 (effect direction: stabilized) (UniProt O95573)”, the pEC50 was 3.91 in experiment [1] and 3.9 in experiment [2].

Take “ACSS1 (effect direction: stabilized) (UniProt Q9NUB1)”: the negative logarithm of the EC50 (pEC50) in experiment [1] was 3.42; in experiment [2], < 3.3.

For “ACTR3 (effect direction: stabilized) (UniProt P61158)”, the results for the pEC50 in experiment [1] and in experiment [2] were 4.25 and 3.93, respectively.

For the target “AFG3L2 (effect direction: stabilized) (UniProt Q9Y4W6)”, the negative logarithm of the EC50 (pEC50) worked out at 4.18 in experiment [1] and 3.89 in experiment [2].

Consider “AK3 (effect direction: stabilized) (UniProt Q9UIJ7)”, for which the values for the pEC50 in experiment [1] and in experiment [2] were 3.22 and 3.46, respectively.

Consider “ANP32B (effect direction: stabilized) (UniProt Q92688)”, for which the negative-log EC50 (pEC50) turned out to be 2.89 in experiment [1] and 3.75 in experiment [2].

Take “ARL2 (effect direction: stabilized) (UniProt P36404)”: the results for the pEC50 in experiment [1] and in experiment [2] were 3.3 and 4.15, respectively.

As to “ARPC1B (effect direction: stabilized) (UniProt O15143)”, the results for the pEC50 in experiment [1] and in experiment [2] were 4.25 and 3.83, respectively.

On to “ARPC2 (effect direction: stabilized) (UniProt O15144)”, for which the pEC50 was determined as 4.06 in experiment [1] and 3.83 in experiment [2].

With “ATL3 (effect direction: stabilized) (UniProt Q6DD88)”, the results for the pEC50 in experiment [1] and in experiment [2] were 3.19 and 3.44, respectively.

For the target “ATP2A2 (effect direction: stabilized) (UniProt P16615)”, the pEC50 in experiment [1] amounted to 3.33; in experiment [2], 4.31.

Regarding “ATP13A1 (effect direction: stabilized) (UniProt Q9HD20)”, the results for the pEC50 in experiment [1] and in experiment [2] were 4.22 and 4.37, respectively.

For the target “AUP1 (effect direction: stabilized) (UniProt Q9Y679)”, the negative logarithm of the EC50 (pEC50) in experiment [1] came out at 3.27; in experiment [2], 3.82.

Turning to “BCS1L (effect direction: stabilized) (UniProt Q9Y276)”, the pEC50 in experiment [1] was 4.07; in experiment [2], < 3.3.

Take “BPNT1 (effect direction: destabilized) (UniProt O95861)”: the pEC50 is < 2.7 in experiment [1] and 3.59 in experiment [2].

Regarding “CAMK4 (effect direction: stabilized) (UniProt Q16566)”, the pEC50 was 3.88 in experiment [1] and 3.77 in experiment [2].

As to “CCDC117 (effect direction: stabilized) (UniProt Q8IWD4)”, the pEC50 in experiment [1] was 3.47; in experiment [2] it was 3.46.

Regarding “CCT2 (effect direction: stabilized) (UniProt P78371)”, the negative logarithm of the EC50 (pEC50) in experiment [1] came to 4.34; in experiment [2] it was 3.56.

Consider “CCT3 (effect direction: stabilized) (UniProt P49368)”, for which the pEC50 was 4.53 in experiment [1] and 3.62 in experiment [2].

“CCT4 (effect direction: stabilized) (UniProt P50991)”: the pEC50 worked out at 3.07 in experiment [1] and 3.65 in experiment [2].

“CLPB (effect direction: stabilized) (UniProt Q9H078)”: the figures for the pEC50 in experiment [1] and in experiment [2] were 4.02 and 4.19, respectively.

As for “CNP (effect direction: stabilized) (UniProt P09543)”, the figures for the pEC50 in experiment [1] and in experiment [2] were 3.58 and 3.91, respectively.

Turning to “CSK (effect direction: stabilized) (UniProt P41240)”, the pEC50 in experiment [1] was determined as 3.56; in experiment [2] it was 4.3.

For the target “CSNK2B (effect direction: stabilized) (UniProt P67870)”, the pEC50 in experiment [1] worked out at 3.84; in experiment [2], 4.2.

For the target “DARS (effect direction: stabilized) (UniProt P14868)”, the pEC50 in experiment [1] was 3.92; in experiment [2], 3.9.

Take “DBN1 (effect direction: destabilized) (UniProt Q16643)”: the pEC50 was 3.27 in experiment [1] and 3.79 in experiment [2].

As for “DCK (effect direction: stabilized) (UniProt P27707)”, the pEC50 is 3.19 in experiment [1] and 3.73 in experiment [2].

In the case of “DDX46 (effect direction: stabilized) (UniProt Q7L014)”, the pEC50 is 3.56 in experiment [1] and 3.86 in experiment [2].

As to “DGKA (effect direction: stabilized) (UniProt P23743)”, the pEC50 was determined as 3.3 in experiment [1] and 3.72 in experiment [2].

Take “DHX15 (effect direction: stabilized) (UniProt O43143)”: the results for the pEC50 in experiment [1] and in experiment [2] were 3.9 and 3.93, respectively.

As for “DHX38 (effect direction: stabilized) (UniProt Q92620)”, the pEC50 worked out at 4.09 in experiment [1] and 3.83 in experiment [2].

Regarding “DNM1L (effect direction: stabilized) (UniProt O00429)”, the pEC50 is 3.38 in experiment [1] and 3.83 in experiment [2].

“DRG2 (effect direction: stabilized) (UniProt P55039)”: the results for the pEC50 in experiment [1] and in experiment [2] were 3.7 and 4.32, respectively.

Take “DTYMK (effect direction: stabilized) (UniProt P23919)”: the pEC50 was determined as 4.17 in experiment [1] and 4.06 in experiment [2].

Take “DYNC1LI1 (effect direction: stabilized) (UniProt Q9Y6G9)”: the pEC50 in experiment [1] was 3.71; in experiment [2] it was 3.6.

“DYNC1LI2 (effect direction: stabilized) (UniProt O43237)”: the values for the pEC50 in experiment [1] and in experiment [2] were 3.69 and 4.16, respectively.

Take “EEF1A1 (effect direction: stabilized) (UniProt P68104)”: the pEC50 in experiment [1] stood at 4.11; in experiment [2] it was 4.26.

Turning to “EEF2 (effect direction: stabilized) (UniProt P13639)”, the negative-log EC50 (pEC50) in experiment [1] was 3.58; in experiment [2], 3.94.

Take “EFTUD2 (effect direction: stabilized) (UniProt Q15029)”: the pEC50 in experiment [1] stood at 2.76; in experiment [2], 3.61.

Turning to “EHD1 (effect direction: stabilized) (UniProt Q9H4M9)”, the negative-log EC50 (pEC50) amounted to 3.88 in experiment [1] and 4.34 in experiment [2].

As to “EIF2B4 (effect direction: stabilized) (UniProt Q9UI10)”, the pEC50 in experiment [1] worked out at 3.65; in experiment [2], 3.73.

“EIF2B5 (effect direction: stabilized) (UniProt Q13144)”: the pEC50 was found to be 3.77 in experiment [1] and 4.12 in experiment [2].

As to “FAR1 (effect direction: stabilized) (UniProt Q8WVX9)”, the pEC50 is 3.36 in experiment [1] and 3.59 in experiment [2].

Regarding “GALK1 (effect direction: stabilized) (UniProt P51570)”, the results for the pEC50 in experiment [1] and in experiment [2] were 4.02 and 4.06, respectively.

Turning to “GIMAP6 (effect direction: stabilized) (UniProt Q6P9H5)”, the figures for the pEC50 in experiment [1] and in experiment [2] were 4.24 and 3.81, respectively.

As to “GMDS (effect direction: stabilized) (UniProt O60547)”, the pEC50 in experiment [1] came out at 2.72; in experiment [2], 4.02.

Regarding “GMPPA (effect direction: stabilized) (UniProt Q96IJ6)”, the pEC50 in experiment [1] was 3.08; in experiment [2], 3.36.

On to “GMPPB (effect direction: stabilized) (UniProt Q9Y5P6)”, for which the negative logarithm of the EC50 (pEC50) in experiment [1] was 3.2; in experiment [2], 3.82.

On to “GMPS (effect direction: stabilized) (UniProt P49915)”, for which the pEC50 was found to be 2.85 in experiment [1] and 4.07 in experiment [2].

As to “GNAI2 (effect direction: stabilized) (UniProt P04899)”, the pEC50 in experiment [1] came to 2.85; in experiment [2], 4.51.

For the target “GNAI3 (effect direction: stabilized) (UniProt P08754)”, the results for the pEC50 in experiment [1] and in experiment [2] were < 2.7 and 4.36, respectively.

With “GNL1 (effect direction: stabilized) (UniProt P36915)”, the results for the pEC50 in experiment [1] and in experiment [2] were 2.8 and 4.04, respectively.

“GSPT1 (effect direction: stabilized) (UniProt P15170)”: the figures for the pEC50 in experiment [1] and in experiment [2] were < 2.7 and 4.01, respectively.

On to “GTPBP3 (effect direction: stabilized) (UniProt Q969Y2)”, for which the pEC50 in experiment [1] turned out to be 3.74; in experiment [2], 4.67.

For “GUK1 (effect direction: stabilized) (UniProt Q16774)”, the pEC50 in experiment [1] turned out to be 3.78; in experiment [2], 3.91.

The record behind these values is the supplement of paper PMC6411743.
